Laboratory results as given in patent US7179823B1, “5-membered n-heterocyclic compounds with hypoglycemic and hypolipidemic activity” (Takeda Pharmaceutical Company Limited, priority 1999, dated 2007).
Where two headings read alike, the source gives them in different places.

Experiments:
[1] = test system: KKA^y mice; experiment: Hypoglycemic and hypolipidemic actions in mice; assay type: in vivo; details: Mus musculus, po, 96 h, four days; for inhibition in vivo at 0.001 %: 0.001% in powdery diet; for inhibition in vivo at 0.005 %: 0.005% in powdery diet; for inhibition in vivo at 0.01 %: 0.01% in powdery diet
Description: Hypoglycemic and Hypolipidemic Actions in Mice
Test compounds were mixed in a powdery diet (CE-2, Japan Clea) at the concentration of 0.01% (compounds of Examples 12, 30, 89, 186), 0.005% (compounds of Examples 7, 80, 82, 181, 182, 184, 256, 262, 283), 0.001% (compounds of Examples 9, 104, 110, 155, 156, 160, 167, 169, 172, 174, 176, 189), or 0.0003% (compounds of Examples 38, 40, 44), and freely given to KKA^y mice (9 to 12 weeks old, 5 mice in a group), a model of obese and type 2 diabetes mellitus, for four days. During this period, water was given freely. Blood was sampled from orbital venous plexus, and glucose and triglyceride levels in plasma separated from blood were determined enzymatically using L type Wako Glu2 (Wako Pure Chemical Industries, Ltd.) or L type Wako TG•H (Wako Pure Chemical Industries, Ltd.), respectively.
In the Table, the value of each treatment group is represented as percent reduction compared with the non-treatment group.

[2] = percent reduction of plasma glucose compared with the non-treatment group, read-out: Hypoglycemic action (%)
[3] = percent reduction of plasma triglyceride compared with the non-treatment group, read-out: Hypolipidemic action (%)

Structure (SMILES)	melting point	also measured
CCOc1nn(Cc2ccc(OCc3nc(-c4ccccc4)oc3C)cc2)cc1CCC(=O)O [Example 155, 3-[3-ethoxy-1-[4-(5-methyl-2-phenyl-4-oxazolylmethoxy)benzyl]-1H-pyrazol-4-yl]propionic acid]		inhibition in vivo at 0.001 % [1, 2]: 49%; inhibition in vivo at 0.001 % [1, 3]: 56%
Cc1oc(-c2ccccc2)nc1COc1ccc(Cn2cc(CCC(=O)O)c(OCc3ccccc3)n2)cc1 [Example 160, 3-[3-benzyloxy-1-[4-(5-methyl-2-phenyl-4-oxazolylmethoxy)benzyl]-1H-pyrazol-4-yl]propionic acid]	108 to 109 °C	inhibition in vivo at 0.001 % [1, 2]: 54%; inhibition in vivo at 0.001 % [1, 3]: 57%
Cc1oc(-c2ccco2)nc1COc1ccc(Cn2cc(CCC(=O)O)c(OCc3ccccc3)n2)cc1 [Example 169, 3-[3-benzyloxy-1-[4-[2-(2-furyl)-5-methyl-4-oxazolylmethoxy]benzyl]-1H-pyrazol-4-yl]propionic acid]		inhibition in vivo at 0.001 % [1, 2]: 48%; inhibition in vivo at 0.001 % [1, 3]: 39%
CCOc1nn(Cc2ccc(OCc3nc(-c4ccccc4)sc3C)cc2)cc1CCC(=O)O [Example 182, 3-[3-ethoxy-1-[4-(5-methyl-2-phenyl-4-thiazolylmethoxy)benzyl]-1H-pyrazol-4-yl]propionic acid]		inhibition in vivo at 0.005 % [1, 2]: 34%; inhibition in vivo at 0.005 % [1, 3]: 12%
CCOc1nn(Cc2ccc(OCc3coc(-c4ccccc4)n3)cc2)cc1CCC(=O)O [Example 186, 3-[3-ethoxy-1-[4-(2-phenyl-4-oxazolylmethoxy)benzyl]-1H-pyrazol-4-yl]propionic acid]		inhibition in vivo at 0.01 % [1, 2]: 57%; inhibition in vivo at 0.01 % [1, 3]: 78%
Cc1oc(-c2ccccc2)nc1COc1ccc(Cn2cc(CCC(=O)O)c(-c3ccccc3)n2)nc1 [Example 306, 3-[1-[5-(5-methyl-2-phenyl-4-oxazolylmethoxy)-2-pyridylmethyl]-3-phenyl-1H-pyrazol-4-yl]propionic acid]	175 to 176 °C	
Cc1oc(-c2ccccc2)nc1COc1ccc(Cn2cc(CC(=O)O)c(-c3ccccc3)n2)cn1 [Example 308, [1-[6-(5-methyl-2-phenyl-4-oxazolylmethoxy)-3-pyridylmethyl]-3-phenyl-1H-pyrazol-4-yl]acetic acid]	144 to 145 °C	
CCOC(=O)Cc1cn(Cc2ccc(OCc3csc(-c4ccccc4)n3)nc2)nc1-c1ccccc1 [Example 309, ethyl(3-phenyl-1-[6-(2-phenyl-4-thiazolylmethoxy)-3-pyridylmethyl]-1H-pyrazol-4-yl]acetate]	75 to 76 °C	
O=C(O)Cc1cn(Cc2ccc(OCc3csc(-c4ccccc4)n3)nc2)nc1-c1ccccc1 [Example 310, [3-phenyl-1-[6-(2-phenyl-4-thiazolylmethoxy)-3-pyridylmethyl]-1H-pyrazol-4-yl]acetic acid]	118 to 119 °C	
Cc1sc(-c2ccccc2)nc1COc1ccc(Cn2cc(CC(=O)O)c(-c3ccccc3)n2)cn1 [Example 312, [1-[6-(5-methyl-2-phenyl-4-thiazolylmethoxy)-3-pyridylmethyl]-3-phenyl-1H-pyrazol-4-yl]acetic acid]	140 to 141 °C	
Cc1oc(-c2ccccc2)nc1CCOc1ccc(Cn2cc(CC(=O)O)c(-c3ccccc3)n2)cn1 [Example 314, [1-[6-[2-(5-methyl-2-phenyl-4-oxazolyl)ethoxy]-3-pyridylmethyl]-3-phenyl-1H-pyrazol-4-yl]acetic acid]	148 to 149 °C	
Cc1oc(-c2ccco2)nc1COc1ccc(Cn2cc(CC(=O)O)c(-c3ccccc3)n2)cn1 [Example 316, [1-[6-[2-(2-furyl)-5-methyl-4-oxazolylmethoxy]-3-pyridylmethyl]-3-phenyl-1H-pyrazol-4-yl]acetic acid]	135 to 136 °C	
O=C(O)Cc1cn(Cc2ccc(OCc3ccccc3)cc2)nc1-c1ccc(F)cc1 [Example 317, [1-(4-benzyloxybenzyl)-3-(4-fluorophenyl)-1H-pyrazol-4-yl]acetic acid]	194 to 195 °C	
COC(=O)Cc1cn(Cc2ccc(OCc3ccccc3)cc2)nc1-c1ccc(F)cc1 [Example 318, methyl [1-(4-benzyloxybenzyl)-3-(4-fluorophenyl)-1H-pyrazol-4-yl]acetate]	58 to 59 °C	
O=C(O)c1cn(Cc2ccc(Oc3ccccc3)cc2)nc1OCc1ccc(Oc2ccccc2)cc1 [Example 320, 1-(4-phenoxybenzyl)-3-(4-phenoxybenzyloxy)-1H-pyrazole-4-carboxylic acid]	141 to 142 °C	
CCOC(=O)c1cn(Cc2ccc(Oc3ccccc3)cc2)nc1OCc1ccc(OCc2nc(-c3ccco3)oc2C)c(OC)c1 [Example 321, ethyl 3-[4-[2-(2-furyl)-5-methyl-4-oxazolylmethoxy]-3-methoxybenzyloxy]-1-(4-phenoxybenzyl)-1H-pyrazole-4-carboxylate]	98 to 99 °C	
COc1cc(COc2nn(Cc3ccc(Oc4ccccc4)cc3)cc2C(=O)O)ccc1OCc1nc(-c2ccco2)oc1C [Example 322, 3-[4-[2-(2-furyl)-5-methyl-4-oxazolylmethoxy]-3-methoxybenzyloxy]-1-(4-phenoxybenzyl)-1H-pyrazole-4-carboxylic acid]	153 to 154 °C	
COc1cc(COc2nn(Cc3ccc(Oc4ccccc4)cc3)cc2C(N)=O)ccc1OCc1nc(-c2ccco2)oc1C [Example 323, 3-[4-[2-(2-furyl)-5-methyl-4-oxazolylmethoxy]-3-methoxybenzyloxy]-1-(4-phenoxybenzyl)-1H-pyrazole-4-carbamide]	105 to 106 °C	
CCOC(=O)c1cn(Cc2ccc(Oc3ccccc3)cc2)nc1OCc1ccc(OCc2nc(-c3ccccc3)oc2C)c(OC)c1 [Example 324, ethyl 3-[3-methoxy-4-(5-methyl-2-phenyl-4-oxazolylmethoxy)benzyloxy]-1-(4-phenoxybenzyl)-1H-pyrazole-4-carboxylate]	127 to 128 °C	
Cc1oc(-c2ccco2)nc1COc1ccc(COc2nn(Cc3ccc(OCc4nc(-c5ccco5)oc4C)cc3)cc2C(=O)O)cc1 [Example 326, 1-[4-[2-(2-furyl)-5-methyl-4-oxazolylmethoxy]benzyl]-3-[4-[2-(2-furyl)-5-methyl-4-oxazolylmethoxy]benzyloxy]-1H-pyrazole-4-carboxylic acid]	144 to 145 °C	
CCOC(=O)c1cn(Cc2ccc(Oc3ccccc3)cc2)nc1OCc1nc(-c2ccccc2)oc1C [Example 329, ethyl 3-(5-methyl-2-phenyl-4-oxazolylmethoxy)-1-(4-phenoxybenzyl)-1H-pyrazole-4-carboxylate]	96 to 97 °C	
Cc1oc(-c2ccccc2)nc1COc1nn(Cc2ccc(Oc3ccccc3)cc2)cc1C(=O)O [Example 330, 3-(5-methyl-2-phenyl-4-oxazolylmethoxy)-1-(4-phenoxybenzyl)-1H-pyrazole-4-carboxylic acid]	222 to 223 °C	
Cc1oc(-c2ccccc2)nc1COc1nn(Cc2ccc(Oc3ccccc3)cc2)cc1C(N)=O [Example 331, 3-(5-methyl-2-phenyl-4-oxazolylmethoxy)-1-(4-phenoxybenzyl)-1H-pyrazole-4-carbamide]	158 to 159 °C	
CCOC(=O)/C=C/c1cn(Cc2ccc(Oc3ccccc3)cc2)nc1OCc1nc(-c2ccccc2)oc1C [Example 332, ethyl(E)-3-[3-(5-methyl-2-phenyl-4-oxazolylmethoxy)-1-(4-phenoxybenzyl)-1H-pyrazol-4-yl]propenoate]	93 to 94 °C	
Cc1oc(-c2ccccc2)nc1COc1nn(Cc2ccc(Oc3ccccc3)cc2)cc1/C=C/C(=O)O [Example 333, (E)-3-[3-(5-methyl-2-phenyl-4-oxazolylmethoxy)-1-(4-phenoxybenzyl)-1H-pyrazol-4-yl]propenoic acid]	210 to 211 °C	
Cc1oc(-c2ccccc2)nc1COc1nn(Cc2ccc(Oc3ccccc3)cc2)cc1CCC(=O)O [Example 335, 3-[3-(5-methyl-2-phenyl-4-oxazolylmethoxy)-1-(4-phenoxybenzyl)-1H-pyrazol-4-yl]propionic acid]	120 to 121 °C	
